# Test results reported in ChEMBL document CHEMBL1201862, “PubChem BioAssay data set” (2004).
# Counter-ions that a name gives are not always drawn.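 Briefly, cells in 96-well plates were exposed to five compound concentrations for 48 h, and endpoints were estimated by linear interpolation. The concentration for 50% growth inhibition is given as GI50.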 Active and inactive are the calls of the source. No stated cut-off is given here; in the data, active = GI50 up to about 1.1 µM and inactive = higher.
# Key:
# Assay in all cases: DTP human tumour cell line panel, 48 h
# [1] = tested on: SK-MEL-5
# [2] = tested on: SF-539
# [3] = tested on: U-251
# [4] = tested on: SNB-75
# [5] = tested on: OVCAR-3
# [6] = tested on: PC-3
# [7] = tested on: HOP-92
# [8] = tested on: NCI-H522
# [9] = tested on: ACHN
# [10] = tested on: SW-620
# [11] = tested on: 786-0
# [12] = tested on: NCI-H23
# [13] = tested on: MCF7
# [14] = tested on: UACC-62
# [15] = tested on: OVCAR-4
# [16] = tested on: NCI-H226
# [17] = tested on: HOP-62
# [18] = tested on: NCI/ADR-RES
# [19] = tested on: COLO 205
# [20] = tested on: CCRF-CEM
Structure (SMILES),GI50 [1],GI50 [2],GI50 [3],GI50 [4],GI50 [5],GI50 [6],GI50 [7],GI50 [8],GI50 [9],GI50 [10],GI50 [11],GI50 [12],GI50 [13],GI50 [14],GI50 [15],GI50 [16],GI50 [17],GI50 [18],GI50 [19],GI50 [20]
O=[N+]([O-])c1ccc(/C=N\N=c2/ccc([N+](=O)[O-])c[nH]2)cc1,> 100 µM (inactive),32.6 µM (inactive),69 µM (inactive),90.6 µM (inactive),> 100 µM (inactive),> 100 µM (inactive),> 100 µM (inactive),> 100 µM (inactive),> 100 µM (inactive),> 100 µM (inactive),> 100 µM (inactive),> 100 µM (inactive),> 100 µM (inactive),> 100 µM (inactive),> 100 µM (inactive),> 100 µM (inactive),> 100 µM (inactive),> 100 µM (inactive),> 100 µM (inactive),> 100 µM (inactive)
NC(=O)ON=C1CCN(Cc2ccccc2)CC1,> 100 µM (inactive),> 100 µM (inactive),> 100 µM (inactive),74.8 µM (inactive),> 100 µM (inactive),> 100 µM (inactive),> 100 µM (inactive),> 100 µM (inactive),> 100 µM (inactive),> 100 µM (inactive),> 100 µM (inactive),> 100 µM (inactive),> 100 µM (inactive),> 100 µM (inactive),> 100 µM (inactive),> 100 µM (inactive),> 100 µM (inactive),> 100 µM (inactive),> 100 µM (inactive),> 100 µM (inactive)
CCC(C)C(=O)OC1C(=O)OC2CC3C(C)=CC(=O)C(O)C3(C)C3C4(O)OCC23C1C(C)C4O (stereo not given),< 0.0108 µM (active),< 0.01 µM (active),< 0.0107 µM (active),< 0.0204 µM (active),< 0.0199 µM (active),< 0.0199 µM (active),0.0208 µM (active),< 0.0105 µM (active),< 0.0171 µM (active),0.0136 µM (active),< 0.0166 µM (active),< 0.0144 µM (active),< 0.01 µM (active),< 0.0184 µM (active),0.0314 µM (active),< 0.016 µM (active),< 0.019 µM (active),0.347 µM (active),0.205 µM (active),< 0.0131 µM (active)
COc1ccc(-c2cc(-c3ccncc3)nc(N)c2-c2ccc(F)cc2)cc1,35.1 µM (inactive),19.4 µM (inactive),> 100 µM (inactive),11.5 µM (inactive),27.9 µM (inactive),67.1 µM (inactive),83.4 µM (inactive),11.1 µM (inactive),3.76 µM (inactive),9.18 µM (inactive),9.29 µM (inactive),76 µM (inactive),24.3 µM (inactive),71.4 µM (inactive),26.7 µM (inactive),46.1 µM (inactive),45.4 µM (inactive),24.9 µM (inactive),5.43 µM (inactive),> 100 µM (inactive)
c1ccc([C@H]2CN3CCSC3=N2)cc1 [LEVAMISOLE HYDROCHLORIDE],> 100 µM (inactive),> 100 µM (inactive),> 100 µM (inactive),> 100 µM (inactive),> 100 µM (inactive),> 100 µM (inactive),> 100 µM (inactive),> 100 µM (inactive),> 100 µM (inactive),> 100 µM (inactive),> 100 µM (inactive),> 100 µM (inactive),> 100 µM (inactive),> 100 µM (inactive),> 100 µM (inactive),> 100 µM (inactive),> 100 µM (inactive),> 100 µM (inactive),> 100 µM (inactive),> 100 µM (inactive)
Oc1ccc(Cl)cc1/C=N/c1cnc2ccccc2c1,27.5 µM (inactive),13.4 µM (inactive),11.9 µM (inactive),33.1 µM (inactive),14.5 µM (inactive),14.3 µM (inactive),28.1 µM (inactive),> 86.7 µM (inactive),> 57.1 µM (inactive),24.8 µM (inactive),37.9 µM (inactive),33.9 µM (inactive),22.6 µM (inactive),32.7 µM (inactive),27.4 µM (inactive),55.2 µM (inactive),35.5 µM (inactive),27.7 µM (inactive),53.8 µM (inactive),1.52 µM (inactive)
